Assay results taken from ChEMBL document CHEMBL4842349, “Enhanced pyrazolopyrimidinones cytotoxicity against glioblastoma cells activated by ROS-Generating cold atmospheric plasma” (Eur J Med Chem, 2021).
The source made the active and inactive calls. The calls are words filed in the database; no cut-off is given here.

How the values were obtained:
U-251 [1] = experiment: Cytotoxicity against cold atmospheric plasma (CAP)-treated human U-251MG cells assessed as decrease in cell viability treated with CAP for 30 secs followed by incubated with compound for 48 hrs by alamar blue assay; assay type: functional, cell-based; details: U-251, 48 h
U-251 [2] = experiment: Cytotoxicity against human U-251MG cells assessed as reduction in cell viability measured after 48 hrs by alamar blue assay; assay type: functional, cell-based; details: U-251, 48 h
U-251 [3] = experiment: Prodrug activation in human U-251MG cells assessed as enhancement of cytotoxicity pretreated with prodrug followed by cold atmospheric plasma (CAP) treatment for 10 to 40 sec in culture medium and measured after 48 hrs by alamar blur assay; assay type: functional, cell-based
U-251 [4] = experiment: Cytotoxicity against cold atmospheric plasma (CAP)-treated human U-251MG cells assessed as decrease in cell viability treated with CAP for 15 secs followed by incubated with compound for 6 days by alamar blue assay; assay type: functional, cell-based; details: U-251, 144 h
U-251 [5] = experiment: Cytotoxicity against human U-251MG cells assessed as decrease in cell viability incubated for 6 days by alamar blue assay; assay type: functional, cell-based; details: U-251, 144 h
U-251 [6] = experiment: Cytotoxicity against cold atmospheric plasma (CAP)-treated human U-251MG cells assessed as decrease in cell viability treated with CAP for 30 secs followed by incubated with compound for 6 days by alamar blue assay; assay type: functional, cell-based; details: U-251, 144 h
U-251 [7] = experiment: Cytotoxicity against human U-251MG cells assessed as decrease in cell viability by measuring combination index treated with cold atmospheric plasma for 30 secs followed by incubated with compound for 48 hrs by alamar blue assay; assay type: functional
U-251 [8] = experiment: Cytotoxicity against human U-251MG cells assessed as reduction in cell viability at 0.3 uM measured after 48 hrs by alamar blue assay relative to control; assay type: functional
[9] = Prodrug activation in human HEK293 cells assessed as decrease in cell viability at low concentrations in presence of AAPH measured after 48 hrs by Alamar blue assay; assay type: functional
U-251 [10] = experiment: Prodrug activation in CAP treated human U-251MG cells assessed as cell cytotoxicity incubated with cold atmospheric plasma (CAP) treated culture medium for 0 to 5 hrs followed by incubation with fresh medium containing prodrug for 48 hrs by Alamar blue assay; assay type: functional, cell-based
[11] = Prodrug activation in human U-251MG cells assessed as increase in cold atmospheric plasma (CAP) induced ROS-mediated cytotoxicity treated with CAP for 20 secs followed by incubated with compound for 48 hrs by alamar blue assay; assay type: functional, cell-based; details: U-251, 48 h
U-251 [12] = experiment: Prodrug activation in human U-251MG cells assessed as cell cytotoxicity treated with prodrug in overnight storage cold atmospheric plasma (CAP) activated culture medium for 48 hrs by Alamar blue assay; assay type: functional, cell-based
U-251 [13] = experiment: Cytotoxicity against human U-251MG cells assessed as reduction in cell viability at 2000 uM measured after 48 hrs by alamar blue assay relative to control; assay type: functional
[14] = Prodrug activation in human U-251MG cells assessed as increase in cold atmospheric plasma (CAP) induced ROS-mediated cytotoxicity treated with CAP for 40 secs followed by incubated with compound for 48 hrs by alamar blue assay; assay type: functional, cell-based; details: U-251, 48 h
U-251 [15] = experiment: Cytotoxicity against human U-251MG cells assessed as decrease in cell viability by measuring combination index treated with cold atmospheric plasma for 20 secs followed by incubated with compound for 48 hrs by alamar blue assay; assay type: functional
[16] = Prodrug activation in human U-251MG cells assessed as increase in cold atmospheric plasma (CAP) induced ROS-mediated cytotoxicity treated with CAP for 10 mins in DMSO followed by incubated with compound for 48 hrs by alamar blue assay; assay type: functional, cell-based
HEK293 [17] = experiment: Cytotoxicity against human HEK293 cells assessed as reduction in cell viability measured after 48 hrs by alamar blue assay; assay type: functional, cell-based; details: HEK293, 48 h
U-251 [18] = experiment: Cytotoxicity against human U-251MG cells assessed as reduction in cell viability at 290 uM measured after 48 hrs by alamar blue assay relative to control; assay type: functional
U-251 [19] = experiment: Cytotoxicity against human U-251MG cells assessed as decrease in live cells stained with green (Calcein-AM) at 0.3 to 2000 uM measured after 48 hrs by Live/dead staining based fluorescent analysis; assay type: functional, cell-based; details: dose 0.3-2000 µM
U-251 [20] = experiment: Cytotoxicity against human U-251MG cells assessed as distinct morphological changes at 0.3 to 2000 uM measured after 48 hrs by Live/dead staining based fluorescent analysis; assay type: functional, cell-based; details: dose 0.3-2000 µM
[21] = Prodrug activation in human U-251MG cells assessed as increase in cold atmospheric plasma (CAP) induced ROS-mediated cytotoxicity treated with CAP for 30 secs followed by incubated with compound for 48 hrs by alamar blue assay; assay type: functional, cell-based; details: U-251, 48 h
[22] = Prodrug activation in human U-251MG cells assessed as increase in cold atmospheric plasma (CAP) induced ROS-mediated cytotoxicity treated with CAP for 40 secs followed by incubated with compound for 48 hrs in presence of NAC by alamar blue assay; assay type: functional, cell-based; details: U-251, 48 h
U-251 [23] = experiment: Prodrug activation in human U-251MG cells assessed as enhancement of cytotoxicity at >200 uM combined with 0.5 mMAAPH measured after 48 hrs by Alamar blue assay; assay type: functional, cell-based; details: dose microM >200, time 48.0 hrs
HEK293 [24] = experiment: Prodrug activation in human HEK293 cells assessed as enhancement of cytotoxicity at >200 uM in presence of 3 mM AAPH measured after 48 hrs by Alamar blue assay; assay type: functional, cell-based; details: dose microM >200, time 48.0 hrs
U-251 [25] = experiment: Cytotoxicity against human U-251MG cells assessed as increase in dead cells stained with red (EthD-1) at 0.3 to 2000 uM measured after 48 hrs by Live/dead staining based fluorescent analysis; assay type: functional, cell-based; details: dose 0.3-2000 µM
[26] = Prodrug activation in human U-251MG cells assessed as decrease in cell viability at low concentrations in presence of AAPH measured after 48 hrs by Alamar blue assay; assay type: functional
[27] = Prodrug activation in human U-251MG cells assessed as increase in cold atmospheric plasma (CAP) induced ROS-mediated cytotoxicity treated with CAP for 30 secs in DMSO followed by incubated with compound for 48 hrs by alamar blue assay; assay type: functional, cell-based; details: U-251, 48 h
U-251 [28] = experiment: Prodrug activation in human U-251MG cells assessed as enhancement of cytotoxicity at >200 uM in presence of 3 mM AAPH measured after 48 hrs by Alamar blue assay; assay type: functional, cell-based; details: dose microM >200, time 48.0 hrs
[29] = Prodrug activation in human U-251MG cells assessed as increase in cold atmospheric plasma (CAP) induced ROS-mediated cytotoxicity treated with CAP for 10 secs followed by incubated with compound for 48 hrs by alamar blue assay; assay type: functional, cell-based; details: U-251, 48 h
U-251 [30] = experiment: Cytotoxicity against human U-251MG cells assessed as decrease in cell viability by measuring combination index treated with cold atmospheric plasma for 10 secs followed by incubated with compound for 48 hrs by alamar blue assay; assay type: functional
HEK293 [31] = experiment: Prodrug activation in human HEK293 cells assessed as enhancement of cytotoxicity at >200 uM combined with 0.5 mM AAPH measured after 48 hrs by Alamar blue assay; assay type: functional, cell-based; details: dose microM >200, time 48.0 hrs
U-251 [32] = experiment: Cytotoxicity against human U-251MG cells assessed as decrease in cell viability by measuring combination index treated with cold atmospheric plasma for 40 secs followed by incubated with compound for 48 hrs by alamar blue assay; assay type: functional

## Cc1c(-c2ccccc2)[nH]c2cc(C(C)C)nn2c1=O
U-251 [1]
  IC50: 86.3 µM
U-251 [2]
  IC50: 137 µM

## COc1ccc(-c2cc(=O)n3nc(C(C)C)cc3[nH]2)cc1
U-251 [1]
  IC50: 127 µM
U-251 [2]
  IC50: 197 µM

## CC(C)c1cc2[nH]c(-c3cc(C(F)(F)F)cc(C(F)(F)F)c3)cc(=O)n2n1
U-251 [1]
  IC50: 19 µM
U-251 [2]
  IC50: 42.9 µM

## Cc1cc(C)cc(-c2cc(=O)n3nc(C)cc3[nH]2)c1
U-251 [3]
  Activity: inactive

## Cc1cc(C)cc(-c2cc(=O)n3nc(C(C)C)cc3[nH]2)c1
U-251 [1]
  IC50: 609 µM
U-251 [2]
  IC50: 502 µM

## O=c1cc(-c2ccccc2)[nH]c2cc(-c3ccc(F)cc3)nn12
U-251 [1]
  IC50: 44.4 µM
U-251 [2]
  IC50: 74.6 µM

## Cn1nnc2c(C(N)=O)ncn2c1=O [TEMOZOLOMIDE]
U-251 [4]
  IC50: 7.28 µM
U-251 [5]
  IC50: 12.7 µM
U-251 [6]
  IC50: 6.43 µM

## CC(C)c1cc2[nH]c(-c3ccc([N+](=O)[O-])cc3)cc(=O)n2n1
U-251 [1]
  IC50: 12.9 µM
U-251 [2]
  IC50: 25.5 µM

## Cc1cc2[nH]c(-c3ccccc3)cc(=O)n2n1
U-251 [7]
  CI: 0.4756
U-251 [8]
  Activity: 100%
[9]
  Activity: 50%
U-251 [10]
  Activity: inactive
U-251 [1]
  IC50: 56.8 µM
[11]
  IC50: 31.1 µM
U-251 [12]
  Activity: inactive
U-251 [13]
  Activity: 10%
[14]
  IC50: 37.1 µM
U-251 [15]
  CI: 0.3352
[16]
  IC50: 246 µM
U-251 [2]
  IC50: 293 µM
HEK293 [17]
  IC50: 123 µM
U-251 [18]
  Activity: 50%
U-251 [19]
  Activity: Active
U-251 [20]
  Activity: Active
[21]
  IC50: 39.2 µM
[22]
  IC50: 95.7 µM
U-251 [23]
  Activity: inactive
HEK293 [24]
  Activity: inactive
U-251 [25]
  Activity: Active
[26]
  Activity: 50%
[27]
  IC50: 215 µM
U-251 [28]
  Activity: inactive
[29]
  IC50: 54.4 µM
U-251 [30]
  CI: 0.311
HEK293 [31]
  Activity: inactive
U-251 [32]
  CI: 0.578

## COc1ccc(-c2cc(=O)n3nc(-c4ccccc4)cc3[nH]2)cc1
U-251 [1]
  IC50: 5670 µM
U-251 [2]
  IC50: 13.4 µM

## CCCCc1cc2[nH]c(-c3cc(C(F)(F)F)cc(C(F)(F)F)c3)cc(=O)n2n1
U-251 [1]
  IC50: 11.4 µM
U-251 [2]
  IC50: 11.3 µM

## CC(C)(C)c1cc2[nH]c(C(C)(C)C)cc(=O)n2n1
U-251 [1]
  IC50: 62.4 µM
U-251 [2]
  IC50: 941 µM

## O=c1cc(-c2ccccc2)[nH]c2cc(-c3ccccc3)nn12
U-251 [1]
  IC50: 73.6 µM
U-251 [2]
  IC50: 77.7 µM

## O=c1cc(-c2ccccc2)[nH]c2cc(-c3cccc(Cl)c3)nn12
U-251 [1]
  IC50: 38.2 µM
U-251 [2]
  IC50: 23.3 µM

## CC(C)(C)c1cc2[nH]c(-c3cc(C(F)(F)F)cc(C(F)(F)F)c3)cc(=O)n2n1
U-251 [1]
  IC50: 462 µM
U-251 [2]
  IC50: 367 µM

## Cc1ccc(-c2cc3[nH]c(-c4ccccc4)cc(=O)n3n2)cc1
U-251 [1]
  IC50: 86.7 µM
U-251 [2]
  IC50: 148 µM
